Results published in article PMC12567096, “An Efficacy- and In Vivo Exposure-Oriented Integrated Study to Investigate the Effective Components of Qishen Granule” (Pharmaceuticals, 2025).
Each block holds one compound with its values, some of them ahead of it.

Assays:
[1] = Concentrations of 24 analytes in QSG treated plasma (Table S5); conditions: for concentration at 0.08 h / concentration at 0.17 h / concentration at 0.5 h / concentration at 1 h / concentration at 2 h / concentration at 4 h / concentration at 8 h / concentration at 12 h: Sprague Dawley, rat, plasma, oral, 7 g/kg; for Concentration: QSG treated plasma, n = 5
[2] = Pharmacokinetic study in rats after oral administration of QSG; conditions: for AUC(0-inf): AUC0→∞; for Shape of the plasma concentration–time curve (in words): rats
Procedure: Ion source parameters were set as follows: temperatures of drying gas and sheath gas were 300 °C and 300 °C, flow rates of drying gas and sheath gas were 7 L/min and 11 L/min, the nebulizer was set at 35 psig, capillary voltage was 3500 V (−), and nozzle voltage was 2000 V (−). […] Chromatographic separations were conducted on a ZORBAX Eclipse Plus C18 column (3.0 × 50 mm, 1.8 μm, Agilent Technologies, California, USA). The mobile phase was composed of 0.1% aqueous FA (A, (v/v)) and 0.1% formic acid methanol (B), the flow rate was set at 0.5 mL/min, and the column oven was maintained at 40 °C.
Protein precipitation was carried out for each time point for plasma samples, calibration samples, or QC samples by introducing four volumes of acetonitrile containing 400 ng/mL of icariin. Then, 10 μL 10% aqueous ascorbic acid (v/v) was spiked into each sample to prevent the oxidation of phenolic compounds. […] An aliquot (450 μL) of the supernatant was transferred and dried under nitrogen vacuum.
The pharmacokinetic parameters were calculated by DAS software (version 2.0) for a non-compartmental analysis.

OGD/R-induced H9c2 cells = experiment: Protective effect on OGD/R-induced H9c2 cells (CCK-8 cell viability); type: cell-based, rat; conditions: for H9c2 cell survival after OGD/R (in words): 1, 10, 25, 50 and 100 μM prior to OGD/R, vs model group; for EC50: protective effect against OGD/R injury, H9c2 cell viability
Procedure: (§1) Rat myocardial H9c2 cells (purchased from China Infrastructure of Cell Line Resources, Institute of Basic Medical Sciences, Chinese Academy of Medical Sciences) were cultured in DMEM supplemented with 10% fetal bovine serum (FBS), Penicillin (100 U/mL), and Streptomycin (100 μg/mL) at 37 °C under a humidified atmosphere of 5% CO2 and 95% air. For OGD/R treatment, H9c2 cells were cultured in glucose-free DMEM under hypoxic conditions (95%N2 + 5%CO2) for 4 h at 37 °C followed by complete medium under normal conditions with air (95%) and CO2 (5%) for 2 h. A control group was maintained under normal culture conditions (with glucose-containing DMEM and 5% CO2) without undergoing OGD/R treatment. CCK8 was used to assess cell viability. After treatment, H9c2 cells were seeded in 96-well plates, with each well supplemented with 10 μL of CCK-8 solution and then incubated for 1 h. Finally, the absorbance at 450 nm was detected by a microplate reader (Model […] 200 PRO, TECAN, Grodig, Austria).
(§2) When evaluating the cytotoxicities of the absorbed compounds, the H9c2 cells were seeded in 96-well plates at a density of 1 × 10^4 cells/well; when cells reached 80% confluence, they were treated with 25 and 50 μM of the 24 analytes to screen the non-toxic concentration ranges. Afterward, the protective effects were verified by assessing the cell viability when treating with different concentrations (1, 10, 25, 50, and 100 μM) of the analytes prior to OGD/R treatment.

H9c2 cells = experiment: Cytotoxicity on H9c2 cells (CCK-8); type: cell-based, rat; conditions: for inhibition at 25 µM / inhibition at 50 µM / inhibition at 100 µM: Rattus norvegicus, read-out: Inhibition rate; for inhibition at 25 µM / inhibition at 50 µM / inhibition at 100 µM / Inhibition rate: H9c2 cells, n=3
Procedure: as §1
as §2, with “they were treated with 25 and 50 μM of the 24 analytes to screen the non-toxic concentration ranges.” left out

[3] = Sprague Dawley, rat, plasma, po, 7 g/kg
[4] = Sprague Dawley, rat, plasma, po, 7 g/kg, rat plasma, single oral 7 g/kg QSG, n = 6
[5] = rat plasma, single oral 7 g/kg QSG, n = 6

concentration at 0.08 h [1]: 0.69 ± 0.227 ng/mL
concentration at 0.17 h [1]: 1.65 ± 0.585 ng/mL
concentration at 0.5 h [1]: 0.454 ± 0.151 ng/mL
concentration at 1 h [1]: 0.355 ± 0.17 ng/mL
concentration at 2 h [1]: 0.179 ± 0.041 ng/mL
concentration at 4 h [1]: 0.231 ± 0.054 ng/mL
concentration at 8 h [1]: 0.053 ± 0.038 ng/mL
concentration at 12 h [1]: 0.124 ± 0.092 ng/mL
AUC [2, 3]: 4.89 ng·h/mL
AUC(0-t) [2, 3]: 3.17 ± 0.843 ng·h/mL
Cmax [2, 3]: 1.65 ± 0.585 ng/mL
MRT [2, 3]: 7.68 ± 2.17 h
Tmax [2, 3]: 0.17 h
half-life [2, 3]: 12.4 ± 10.5 h
AUC(0-inf) ([2]; Sprague Dawley, rat, plasma, po, 7 g/kg, Table S12, rats, oral QSG): 4.89 ng·h/mL
AUC(0-inf) [2, 4]: 4.89 ± 2.77 ng·h/mL
Shape of the plasma concentration–time curve (in words) ([2]; oral QSG): Double peaks
SMILES: O=C(/C=C/c1ccc(O)cc1)c1ccc(O)cc1O [Isoliquiritigenin]
H9c2 cell survival after OGD/R (in words) (OGD/R-induced H9c2 cells): significantly improve H9c2 cell survival rates
EC50 (OGD/R-induced H9c2 cells; Rattus norvegicus): 10.3 µM
inhibition at 25 µM (H9c2 cells; 25 μM): -14.9 ± 9.3%
inhibition at 50 µM (H9c2 cells; 50 μM): -1.2 ± 7.6%
inhibition at 100 µM (H9c2 cells; 100 μM): 7.2 ± 4.2%

concentration at 0.08 h [1]: 5.84 ± 1.29 ng/mL
concentration at 0.17 h [1]: 13.6 ± 4.12 ng/mL
concentration at 0.5 h [1]: 4.37 ± 1.59 ng/mL
concentration at 1 h [1]: 2.41 ± 0.697 ng/mL
concentration at 2 h [1]: 0.911 ± 0.249 ng/mL
concentration at 4 h [1]: 0.251 ± 0.183 ng/mL
concentration at 8 h [1]: 0.188 ± 0.101 ng/mL
concentration at 12 h [1]: 0.042 ± 0.044 ng/mL
AUC [2, 3]: 10.9 ng·h/mL
AUC(0-t) [2, 3]: 10.3 ± 0.93 ng·h/mL
Cmax [2, 3]: 12.8 ± 4.12 ng/mL
MRT [2, 3]: 1.84 ± 0.448 h
Tmax [2, 3]: 0.17 h
half-life [2, 3]: 2.6 ± 1.22 h
AUC(0-inf) [2, 4]: 10.9 ± 0.867 ng·h/mL
SMILES: O=c1cc(-c2ccc(O)c(O)c2)oc2cc(O)cc(O)c12 [Luteolin]
H9c2 cell survival after OGD/R (in words) (OGD/R-induced H9c2 cells): significantly improve H9c2 cell survival rates
EC50 (OGD/R-induced H9c2 cells; Rattus norvegicus): 11.3 µM
inhibition at 25 µM (H9c2 cells; 25 μM): 12.2 ± 4%
inhibition at 50 µM (H9c2 cells; 50 μM): 13.1 ± 7.2%
inhibition at 100 µM (H9c2 cells; 100 μM): 18.1 ± 4.2%

concentration at 0.08 h [1]: 66.2 ± 20.1 ng/mL
concentration at 0.17 h [1]: 99.06 ± 0.162 ng/mL
concentration at 0.5 h [1]: 395 ± 7.1 ng/mL
concentration at 1 h [1]: 170 ± 35.7 ng/mL
concentration at 2 h [1]: 77.2 ± 7.26 ng/mL
concentration at 4 h [1]: 68.1 ± 21 ng/mL
concentration at 8 h [1]: 51.4 ± 5.49 ng/mL
concentration at 12 h [1]: 39.1 ± 14.9 ng/mL
AUC [2, 3]: 1420 ng·h/mL
MRT [2, 3]: 7.18 ± 0.978 h
Tmax [2, 3]: 0.563 ± 0.125 h
half-life [2, 3]: 9.22 ± 3.27 h
AUC(0-inf) [2, 4]: 1420 ± 243 ng·h/mL
AUC0→t [2, 5]: 1278 ± 171.4 ng·h/mL
Cmax [2, 5]: 394.1 ± 6.271 ng/mL
SMILES: O=C(/C=C/c1ccc(O)c(O)c1)O[C@@H]1C[C@](O)(C(=O)O)C[C@@H](O)[C@H]1O [Chlorogenic acid]
H9c2 cell survival after OGD/R (in words) (OGD/R-induced H9c2 cells): significantly improve H9c2 cell survival rates
EC50 (OGD/R-induced H9c2 cells; Rattus norvegicus): 8.6 µM
inhibition at 25 µM (H9c2 cells; 25 μM): -1.6 ± 4.9%
inhibition at 50 µM (H9c2 cells; 50 μM): 12 ± 1.7%
inhibition at 100 µM (H9c2 cells; 100 μM): 15 ± 4.1%

SMILES: O=C(/C=C/c1ccc(O)c(O)c1)O[C@H]1[C@H](O)C[C@](O)(C(=O)O)C[C@H]1OC(=O)/C=C/c1ccc(O)c(O)c1 [Isochlorogenic acid C]
Concentration ([1]; 0.08 h): 12.829 ± 7.386 ng/mL
Concentration ([1]; 0.17 h): 23.904 ± 9.523 ng/mL
Concentration ([1]; 0.5 h): 18.491 ± 8.090 ng/mL
Concentration ([1]; 1 h): 11.005 ± 7.334 ng/mL
Concentration ([1]; 2 h): 7.777 ± 3.293 ng/mL
Concentration ([1]; 4 h): 2.637 ± 2.154 ng/mL
Concentration ([1]; 8 h): 7.703 ± 2.363 ng/mL
Concentration ([1]; 12 h): 1.848 ± 1.625 ng/mL
AUC0→∞ ([2]; Table S12, rats, oral QSG): 170.5 ng·h/mL
AUCi ([2]; exposure (AUC0→∞) of the component in rats after oral QSG, as used for ECI): 170.5
Oral relative bioavailability ([2]; exposure level (AUC0→∞) compared with the dosage of each compound in QSG): 0.008%
Absorption efficiency / bioavailability (in words) ([2]; from Table S12, rats, oral QSG): less readily absorbed
AUC0→t [2, 5]: 116.3 ± 39.63 ng·h/mL
AUC0→∞ [2, 5]: 170.5 ± 80.02 ng·h/mL
Cmax [2, 5]: 33.95 ± 8.980 ng/mL
MRT [2, 5]: 8.361 ± 4.800 h
T1/2 [2, 5]: 16.43 ± 14.14 h
Tmax [2, 5]: 0.334 ± 0.165 h
Shape of the plasma concentration–time curve (in words) ([2]; oral QSG): Double peaks
H9c2 cell survival after OGD/R (in words) (OGD/R-induced H9c2 cells): significantly improve H9c2 cell survival rates
EC50 (OGD/R-induced H9c2 cells): 1.09 µM
Inhibition rate (H9c2 cells; 25 μM): -11.8 ± 6.3%
Inhibition rate (H9c2 cells; 50 μM): -16.6 ± 1.3%
Inhibition rate (H9c2 cells; 100 μM): -6.3 ± 2.3%
Effect on H9c2 cell viability / cytotoxicity (in words) (H9c2 cells; CCK-8, compared to the control group): significantly enhanced cell viabilities
